What was measured:
[1] = system: hypertensive Sprague-Dawley rats; experiment: antihypertensive activity, sample in drinking water of hypertensive rats, tail cuff systolic blood pressure; format: in vivo; details: 100 μg/ml in drinking water, after 36 hours; for reduction in systolic blood pressure: tail cuff
Protocol: The crude extract and HPLC fractions prepared according to the procedure of Example 1 (with a preparative-scale (21.4×250 mm) column), were tested for antihypertensive activity by adding the sample to be tested at a concentration of 100 μg/ml to the drinking water of hypertensive Sprague-Dawley rats. After 36 hours, systolic blood pressures were measured with a Harvard tail cuff apparatus attached to a Beckman R511A recorder.

[2] = conversion of brazilin in hot water; format: physicochemical

Structure (SMILES) | reduction in systolic blood pressure [1] | systolic blood pressure after treatment ([1]; brought into the normal range) | stability in hot water [2]
Oc1cc2c(cc1O)C1c3ccc(O)c(O)c3OCC1(O)C2 (single isomer, unassigned) [Peak B, haematoxylin] | ~12% |  | 
Oc1cc2c(cc1O)C13c4ccc(O)c(O)c4OCC1(C2)OC1(O)CC=C2CC4(O)COc5c(ccc(O)c5O)C4=C2C13 (single isomer, unassigned) [peak A] | about 35% | 110-120 mm Hg | 
Oc1ccc2c(c1)OC[C@]1(O)Cc3cc(O)c(O)cc3[C@H]21 [Brazilin, brazilin] |  |  | slowly converted to haematoxylin

From patent US6569891B1, “Antihypertensive compound from Caesalpinia brasiliensis” (Brigham Young University, priority 2002, dated 2003)
